Source: US20260317319A1, “NOVEL ERGOLINES AND METHODS OF TREATING MOOD DISORDERS” (Gilgamesh Pharma Inc., priority 2023, published 2026)
pEC50: −log10 of the molar value. Read-outs that look alike come from different tables or passages of the source.

Key:
5-HT2A receptor [1] = biological target: T1, 5-HT2A receptor (Homo sapiens, UniProt P28223); experiment: cell-based; format: cell-based; details: beta-arrestin recruitment; for pEC50 / Emax: agonist; for pEC50: PathHunter, read-out: 5-HT2A Arrestin EC50; for Emax: max dose, read-out: 5-HT2A Arrestin % Act @ Max Dose
Procedure, shortened: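 Agonist activity expressed as percent of maximal control ligand signal after vehicle subtraction, from chemiluminescence (RLU). Cells carry ProLink-tagged 5-HT2A plus β-arrestin fused to β-gal deletion mutant; ligand-driven arrestin binding restores β-galactosidase activity (PathHunter). Cells pre-incubated at 37° C.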

in vitro [2] = format: in vitro ADME, human
5-HT2B receptor = biological target: T2, 5-HT2B receptor (Homo sapiens, UniProt P41595); experiment: cell-based; format: cell-based; details: for Emax: HEK293, agonist, HEK293, max dose, read-out: 5-HT2B % Act @ Max Dose; for selectivity for 5-HT2A over 5-HT2B: functional, compared to closest N-methyl counterparts Int8, Int11, Int17
T2 construct: expressed in transfected cells; host or cells: HEK293, stably transfected
Procedure, shortened: (§1)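 FLIPR Tetra fluorescence read-out of calcium flux after compound addition. Receptor-expressing stable lines were used (HEK293 for 2A/2B; CHO with Gα15 for 1A), dye-loaded with Fluo-4 Direct and 2.5 mM final probenecid, 50 min at 37 °C.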

in vitro [3] = format: in vitro ADME, mouse
Source text: MLM Stability Pooled MLM from male CD-1 mice (BIOIVT M00501) were used.

5-HT1A receptor = biological target: T3, 5-HT1A receptor (Homo sapiens, UniProt P08908); experiment: cell-based; details: agonist, Ca2+ flux; for Emax: CHO, CHO cells with Gα15, max dose, read-out: 5-HT1A % Act @ Max Dose
T3 construct: expressed in transfected cells; host or cells: CHO cells, stably transfected
T3 sequence (P08908 1-422): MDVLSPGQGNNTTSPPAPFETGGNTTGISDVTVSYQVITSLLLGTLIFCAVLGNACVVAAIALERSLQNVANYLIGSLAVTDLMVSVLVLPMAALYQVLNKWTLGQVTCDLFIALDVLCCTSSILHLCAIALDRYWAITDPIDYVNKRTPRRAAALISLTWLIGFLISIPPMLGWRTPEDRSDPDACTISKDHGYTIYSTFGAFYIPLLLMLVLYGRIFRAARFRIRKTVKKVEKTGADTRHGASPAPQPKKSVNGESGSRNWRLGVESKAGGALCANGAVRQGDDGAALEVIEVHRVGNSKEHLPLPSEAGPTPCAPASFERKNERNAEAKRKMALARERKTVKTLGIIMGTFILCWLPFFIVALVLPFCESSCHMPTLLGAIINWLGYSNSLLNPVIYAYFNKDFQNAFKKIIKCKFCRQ
Procedure, shortened: as §1

5-HT1B receptor = biological target: T4, 5-HT1B receptor (Homo sapiens, UniProt P28222); experiment: cAMP accumulation functional assay at 5-HT1B; format: cell-based; details: for Emax: max dose, read-out: 5-HT1B % Act @ Max Dose; for selectivity for 5-HT2A over 5-HT1B: functional, compared to the N-methyl prototype LSD
T4 construct: expressed in transfected cells
Procedure, shortened: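 Stably transfected human 5-HT1B cells were incubated 60 min at room temperature, after which detection reagent was applied for another 60 min at RT. The read-out was cAMP accumulation, used as a measure of agonist activity.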

5-HT2A receptor [4] = biological target: T1, 5-HT2A receptor; experiment: cell-based; format: cell-based; set-up: expressed in transfected cells; host or cells: HEK293, stably transfected; details: for Emax: HEK293, agonist, HEK293, max dose, read-out: 5-HT2A % Act @ Max Dose
Procedure, shortened: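 Stable HEK293 (5-HT2A, 5-HT2B) or CHO/Gα15 (5-HT1A) cells; Fluo-4 Direct, probenecid 2.5 mM final; 50 min dye load, 37 °C, 5% CO2; agonist-mode Ca2+ flux, FLIPR Tetra.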

in vitro [5] = format: in vitro ADME, rat
Source text: RLM Stability Pooled RLM from male Sprague-Dawley rats (Xenotech R1000) were used.

[6] = HLM 0.50 mg/mL, NADPH 1 mM, 1 μM compound, pH 7.4, 37° C., 60 min
[7] = MLM (male CD-1) 0.50 mg/mL, NADPH 1 mM, 1 μM compound, pH 7.4, 37° C., 60 min
[8] = RLM (male Sprague-Dawley) 0.50 mg/mL, NADPH 1 mM, 1 μM compound, pH 7.4, 37° C., 60 min

T1 sequence (P28223 whole entry, the tested form may be a part): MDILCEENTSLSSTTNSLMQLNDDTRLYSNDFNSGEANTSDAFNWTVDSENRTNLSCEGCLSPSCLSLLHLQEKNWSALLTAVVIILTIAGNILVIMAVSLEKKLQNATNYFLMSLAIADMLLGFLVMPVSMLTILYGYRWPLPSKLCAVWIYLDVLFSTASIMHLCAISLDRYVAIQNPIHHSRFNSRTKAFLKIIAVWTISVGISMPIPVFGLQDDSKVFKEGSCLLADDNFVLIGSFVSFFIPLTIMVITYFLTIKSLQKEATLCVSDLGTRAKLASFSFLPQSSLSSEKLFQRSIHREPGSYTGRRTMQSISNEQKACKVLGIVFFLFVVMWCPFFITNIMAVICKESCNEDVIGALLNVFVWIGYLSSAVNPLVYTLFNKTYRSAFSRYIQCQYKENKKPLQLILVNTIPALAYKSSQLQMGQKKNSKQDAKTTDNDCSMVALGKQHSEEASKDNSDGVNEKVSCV
T4 sequence (P28222 whole entry): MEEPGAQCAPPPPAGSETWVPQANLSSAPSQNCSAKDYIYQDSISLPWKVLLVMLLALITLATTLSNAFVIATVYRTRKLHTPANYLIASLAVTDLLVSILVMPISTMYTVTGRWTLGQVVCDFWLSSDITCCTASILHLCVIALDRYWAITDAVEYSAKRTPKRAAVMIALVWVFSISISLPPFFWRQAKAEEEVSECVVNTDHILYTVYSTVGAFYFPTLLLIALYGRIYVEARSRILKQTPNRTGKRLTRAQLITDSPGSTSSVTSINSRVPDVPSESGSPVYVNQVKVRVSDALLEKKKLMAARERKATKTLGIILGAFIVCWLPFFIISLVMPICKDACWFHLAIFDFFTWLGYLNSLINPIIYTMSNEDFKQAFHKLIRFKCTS
T2 sequence (P41595 whole entry): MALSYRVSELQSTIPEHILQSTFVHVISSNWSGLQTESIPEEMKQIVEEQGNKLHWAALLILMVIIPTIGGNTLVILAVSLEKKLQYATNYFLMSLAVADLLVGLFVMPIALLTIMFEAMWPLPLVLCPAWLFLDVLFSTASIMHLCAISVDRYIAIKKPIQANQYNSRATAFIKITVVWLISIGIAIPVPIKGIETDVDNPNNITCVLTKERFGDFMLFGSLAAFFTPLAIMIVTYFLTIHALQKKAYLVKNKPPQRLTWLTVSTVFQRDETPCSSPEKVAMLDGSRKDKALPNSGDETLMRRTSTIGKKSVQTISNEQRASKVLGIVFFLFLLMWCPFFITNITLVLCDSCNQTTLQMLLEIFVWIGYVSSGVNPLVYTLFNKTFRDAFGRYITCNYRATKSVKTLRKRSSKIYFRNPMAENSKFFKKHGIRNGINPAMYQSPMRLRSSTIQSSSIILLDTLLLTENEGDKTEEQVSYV

Compound	pEC50 (5-HT2A receptor [1])	Emax (5-HT2A receptor [1])	half-life (t1/2) (in vitro [2]; [6])	Emax (5-HT2B receptor; Ca2+ flux)	half-life (t1/2) (in vitro [3]; [7])	Emax (5-HT1A receptor)	Emax (5-HT1B receptor; agonist, cAMP accumulation)	Emax (5-HT2A receptor [4]; Ca2+ flux)	half-life (t1/2) (in vitro [5]; [8])	5-HT2A arrestin agonist class (5-HT2A receptor [1])	stability in HLM (in vitro [2])	selectivity for 5-HT2A over 5-HT2B (5-HT2B receptor)	stability in MLM (in vitro [3])	selectivity for 5-HT2A over 5-HT1B (5-HT1B receptor)	stability in RLM (in vitro [5])	other results
CCN(CC)C(=O)[C@@H]1C=C2c3cccc4[nH]cc(c34)C[C@H]2N(Cc2cccc(OC)c2)C1 [Compound 18, (6aR,9R)—N,N-diethyl-7-(3-methoxybenzyl)-4,6,6a,7,8,9-hexahydroindolo[4,3-fg]quinoline-9-carboxamide]	8.37	89.6%	13.6 min	4.69%	2.6 min	28.9%	83.3%	61.1%	5.3 min	–	–	–	–	–	–	Intrinsic clearance (Clint) (in vitro [2]; [6]): 101.7 µL/min/mg; Intrinsic clearance (Clint) (in vitro [3]; [7]): 523.7 µL/min/mg; Intrinsic clearance (Clint) (in vitro [5]; [8]): 262.8 µL/min/mg
CCCN1C[C@H](C(=O)N2[C@@H](C)C[C@@H]2C)C=C2c3cccc4[nH]cc(c34)C[C@H]21 [Compound 4, ((2S,4S)-2,4-dimethylazetidin-1-yl)((6aR,9R)-7-propyl-4,6,6a,7,8,9-hexahydroindolo[4,3-fg]quinolin-9-yl)methanone]	–	117%	10.6 min	87.5%	0.8 min	123%	96%	97.6%	12.8 min	full agonists	much lower stability (higher clearance)	more selective for 5-HT2A over 5-HT2B	much lower stability (higher clearance)	greater selectivity for 5-HT2A over 5-HT1B	much lower stability (higher clearance)	–
CCCN1C[C@H](C(=O)N(CC)CC)C=C2c3cccc4[nH]cc(c34)C[C@H]21 [Compound 1, (6aR,9R)—N,N-diethyl-7-propyl-4,6,6a,7,8,9-hexahydroindolo[4,3-fg]quinoline-9-carboxamide]	–	129%	15.1 min	104%	2.3 min	95.6%	96.6%	97%	16.2 min	full agonists	much lower stability (higher clearance)	–	much lower stability (higher clearance)	–	much lower stability (higher clearance)	–
CCN(CC)C(=O)[C@@H]1C=C2c3cccc4[nH]cc(c34)C[C@H]2N(Cc2cccc(O)c2)C1 [Compound 62, (6aR,9R)—N,N-diethyl-7-(3-hydroxybenzyl)-4,6,6a,7,8,9-hexahydroindolo[4,3-fg]quinoline-9-carboxamide]	7.96	58.4%	–	9.88%	–	22.7%	46.8%	81.5%	–	–	–	–	–	–	–	microsomal CLint (in vitro [2]; human, microsomes, HLM 0.50 mg/mL, NADPH 1 mM, 1 μM compound, pH 7.4, 37° C., 60 min, read-out: Intrinsic clearance (Clint)): 134 µL/min/mg; half-life (in vitro [2]; human, microsomes, HLM 0.50 mg/mL, NADPH 1 mM, 1 μM compound, pH 7.4, 37° C., 60 min, read-out: half-life (t1/2)): 10.3 min; pEC50 (5-HT2B receptor; agonist, Ca2+ flux, HEK293): < 4.00; microsomal CLint (in vitro [3]; mouse, microsomes, MLM (male CD-1) 0.50 mg/mL, NADPH 1 mM, 1 μM compound, pH 7.4, 37° C., 60 min, read-out: Intrinsic clearance (Clint)): 244 µL/min/mg; half-life (in vitro [3]; mouse, microsomes, MLM (male CD-1) 0.50 mg/mL, NADPH 1 mM, 1 μM compound, pH 7.4, 37° C., 60 min, read-out: half-life (t1/2)): 5.7 min; pEC50 (5-HT1A receptor; CHO cells with Gα15): 4.90; pEC50 (5-HT1B receptor; agonist, cAMP accumulation): < 5.00; pEC50 (5-HT2A receptor [4]; agonist, Ca2+ flux, HEK293): 6.04; microsomal CLint (in vitro [5]; rat, microsomes, RLM (male Sprague-Dawley) 0.50 mg/mL, NADPH 1 mM, 1 μM compound, pH 7.4, 37° C., 60 min, read-out: Intrinsic clearance (Clint)): 214 µL/min/mg; half-life (in vitro [5]; rat, microsomes, RLM (male Sprague-Dawley) 0.50 mg/mL, NADPH 1 mM, 1 μM compound, pH 7.4, 37° C., 60 min, read-out: half-life (t1/2)): 6.5 min
CCCN1C[C@H](C(=O)N[C@H](C)CC)C=C2c3cccc4[nH]cc(c34)C[C@H]21 [Compound 3, (6aR,9R)—N—((R)-sec-butyl)-7-propyl-4,6,6a,7,8,9-hexahydroindolo[4,3-fg]quinoline-9-carboxamide]	–	110%	4.2 min	94.1%	1.6 min	108%	98.7%	103%	4.4 min	full agonists	much lower stability (higher clearance)	more selective for 5-HT2A over 5-HT2B	much lower stability (higher clearance)	greater selectivity for 5-HT2A over 5-HT1B	much lower stability (higher clearance)	selectivity for 5-HT2A over adrenergic and dopamine receptors (5-HT2A receptor [4]; versus Alpha1A, Alpha2A, D1, D2): exceptional selectivity
